Experimental findings from patent publication US8354414B2, “Substituted bicyclic pyrimidines” (Cephalon, Inc, priority 2006, dated 2013) are described below.

For assay [1], the target named is T1, His6-GSK-3β (Homo sapiens, UniProt P49841).
T1 construct: made in house; host or cells: Sf21 insect cells (baculovirus)
Briefly: Inhibition of His6-GSK-3β kinase activity (ELISA-based format, time-resolved fluorescence readout). Type of assay: biochemical. Conditions: for IC50: read-out: GSK3β IC50. In outline: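 Plate-bound recombinant GST-Rb substrate was phosphorylated for 30 min at 37° C by baculovirus-expressed His6-GSK-3β (200 ng/ml) at 20 μM ATP, 10 mM MgCl2, 2.5% DMSO. Europium time-resolved fluorescence of anti-phospho-Ser780 Rb signal gave inhibition, fitted to IC50.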
Background: ELISA stands for enzyme-linked immunosorbent assay.

For assay [2], the target named is T2, CDK5/GST-p25 (Homo sapiens, UniProt Q00535).
T2 construct: The final construct, encoding for full-length human CDK5; made in house; host or cells: Sf21 insect cells (baculovirus co-infection)
T2 sequence (Q00535 whole entry): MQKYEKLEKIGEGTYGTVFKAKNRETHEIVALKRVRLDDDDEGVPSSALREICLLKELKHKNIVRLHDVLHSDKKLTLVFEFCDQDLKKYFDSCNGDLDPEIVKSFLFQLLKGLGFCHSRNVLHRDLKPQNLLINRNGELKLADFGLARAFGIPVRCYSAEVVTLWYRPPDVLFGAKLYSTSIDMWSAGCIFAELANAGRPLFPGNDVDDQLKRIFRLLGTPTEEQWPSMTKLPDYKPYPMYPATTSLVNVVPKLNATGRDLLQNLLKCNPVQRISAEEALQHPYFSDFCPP
T2 sequence (Q15078 108-307 partner limits assumed): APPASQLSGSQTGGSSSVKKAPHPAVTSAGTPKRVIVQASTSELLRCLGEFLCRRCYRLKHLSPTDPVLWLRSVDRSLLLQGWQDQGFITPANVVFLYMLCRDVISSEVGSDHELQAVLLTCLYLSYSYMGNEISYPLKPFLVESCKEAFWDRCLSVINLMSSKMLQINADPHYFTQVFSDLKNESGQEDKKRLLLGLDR
Nature of the assay: Inhibition of CDK5/GST-p25 kinase activity (ELISA with time-resolved fluorescence readout). The format is biochemical. In outline:
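The substrate, GST-Rb(773-928), was immobilised on plates and phosphorylated for 20 min at 37 °C by 2 ng/ml CDK5/GST-p25 in HEPES pH 7.2 with 10 µM ATP and 10 mM MgCl2. Both proteins were human and co-expressed in insect cells. Ser-780 phosphorylation was read by europium time-resolved fluorescence and converted to IC50.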

Like-named read-outs stand apart in the source and are kept apart here. A value given as a limit tells only on which side of the number the result lay.

T1 sequence (P49841 2-419): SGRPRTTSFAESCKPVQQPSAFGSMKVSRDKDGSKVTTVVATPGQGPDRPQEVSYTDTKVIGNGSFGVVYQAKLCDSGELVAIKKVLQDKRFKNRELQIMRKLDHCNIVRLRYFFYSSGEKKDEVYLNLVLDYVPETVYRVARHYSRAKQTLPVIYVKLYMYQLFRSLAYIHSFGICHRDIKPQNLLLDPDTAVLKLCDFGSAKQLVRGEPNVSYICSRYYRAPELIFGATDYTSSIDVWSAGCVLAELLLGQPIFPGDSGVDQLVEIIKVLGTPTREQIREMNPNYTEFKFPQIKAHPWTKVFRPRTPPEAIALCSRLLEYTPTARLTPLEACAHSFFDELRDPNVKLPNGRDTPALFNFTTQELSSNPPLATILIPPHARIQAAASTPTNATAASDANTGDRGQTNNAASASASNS

`O=C1Nc2ccc(Br)cc2C1c1nc(NCCCN2CCOCC2)nc2c1CCC2` (stereo not drawn) [Example 331, 5-Bromo-3-[2-(3-morpholin-4-yl-propylamino)-6,7-dihydro-5H-cyclopentapyrimidin-4-yl]-1,3-dihydro-indol-2-one]: the IC50 is 300 to 3000 nM in assay [1] (class symbols) and above 10000 nM in assay [2] (class symbols).

For `COCCCNc1nc(C2C(=O)Nc3ccc(C#N)cc32)c2cn(C3CCCC3)nc2n1` (stereo not drawn) [Example 175, 3-[2-Cyclopentyl-6-(3-methoxy-propylamino)-2H-pyrazolo [3,4-d]pyrimidin-4-yl]-2-oxo-2,3-dihydro-1H-indole-5-carbonitrile], the IC50 in assay [1] (class symbols) and in assay [2] (class symbols) was below 300 nM each time.

In the case of `CCCOCCNc1nc2c(c(C3C(=O)Nc4ccc(Br)cc43)n1)CCC2` (stereo not drawn) [Example 333, 5-Bromo-3-[2-(2-propoxy-ethylamino)-6,7-dihydro-5H-cyclopentapyrimidin-4-yl]-1,3-dihydro-indol-2-one], the half-inhibitory concentration (IC50) in assay [1] (class symbols) and in assay [2] (class symbols) was above 10000 nM throughout.

For `C=CCNc1nc(C2C(=O)Nc3ccc(Br)cc32)c2cn(CCC)nc2n1` (stereo not drawn) [Example 193, 3-(6-Allylamino-2-propyl-2H-pyrazolo[3,4-d]pyrimidin-4-yl)-5-bromo-1,3-dihydro-indol-2-one], the IC50 in assay [1] (class symbols) and in assay [2] (class symbols) was below 300 nM each time.

Turning to `CCCn1cc2c(C3C(=O)Nc4ccc(Br)cc43)nc(NCCC(F)(F)F)nc2n1` (stereo not drawn) [Example 192, 5-Bromo-3-[2-propyl-6-(3,3,3-trifluoro-propylamino)-2H-pyrazolo[3,4-d]pyrimidin-4-yl]-1,3-dihydro-indol-2-one], the IC50 in assay [1] (class symbols) and in assay [2] (class symbols) was below 300 nM in each case.

For `CCCn1cc2c(C3C(=O)Nc4ccc(Br)cc43)nc(NC[C@H](O)CO)nc2n1` (stereo partly drawn) [Example 364, 5-Bromo-3-[6-((S)-2,3-dihydroxy-propylamino)-2-propyl-2H-pyrazolo [3,4-d]pyrimidin-4-yl]-1,3-dihydro-indol-2-one], the IC50 in assay [1] (class symbols) and in assay [2] (class symbols) was below 300 nM each time.

As to `CCCOCCNc1nc2c(c(C3C(=O)Nc4ccc(C#N)cc43)n1)CCC2` (stereo not drawn) [Example 343, 2-Oxo-3-[2-(2-propoxy-ethylamino)-6,7-dihydro-5H-cyclopentapyrimidin-4-yl]-2,3-dihydro-1H-indole-5-carbonitrile], the concentration for half-maximal inhibition (IC50) in assay [1] (class symbols) and in assay [2] (class symbols) was above 10000 nM each time.

Consider `O=C1Nc2ccc(Br)cc2C1c1nc(NCc2ccc(Cl)nc2)nc2c1CCC2` (stereo not drawn) [Example 338, 5-Bromo-3-{2-[(6-chloro-pyridin-3-ylmethyl)-amino]-6,7-dihydro-5H-cyclopentapyrimidin-4-yl}-1,3-dihydro-indol-2-one], for which the IC50 was above 10000 nM in assay [1] (class symbols) and above 3000 nM in assay [2] (numeric bounds).

For `CCOCCNc1nc2c(c(C3C(=O)Nc4ccc(Br)cc43)n1)CCC2` (stereo not drawn) [Example 334, 5-Bromo-3-[2-(2-ethoxy-ethylamino)-6,7-dihydro-5H-cyclopentapyrimidin-4-yl]-1,3-dihydro-indol-2-one], the concentration for half-maximal inhibition (IC50) in assay [1] (class symbols) and in assay [2] (class symbols) was above 10000 nM each time.

As to `N#Cc1ccc2c(c1)C(c1nc(NCCN3CCOCC3)nc3nn(C4CCCC4)cc13)C(=O)N2` (stereo not drawn) [Example 177, 3-[2-Cyclopentyl-6-(2-morpholin-4-yl-ethylamino)-2H-pyrazolo[3,4-d]pyrimidin-4-yl]-2-oxo-2,3-dihydro-1H-indole-5-carbonitrile], the IC50 in assay [1] (class symbols) and in assay [2] (class symbols) was below 300 nM in each case.

As to `N#Cc1ccc2c(c1)C(c1nc(Nc3ccc(N4CCS(=O)(=O)CC4)cc3)nc3nn(C4CCCC4)cc13)C(=O)N2` (stereo not drawn) [Example 135, 3-{2-Cyclopentyl-6-[4-(1,1-dioxo-1λ^6-thiomorpholin-4-yl)-phenylamino]-2H-pyrazolo[3,4-d]pyrimidin-4-yl}-2-oxo-2,3-dihydro-1H-indole-5-carbonitrile], the IC50 in assay [1] (class symbols) is below 300 nM; in assay [2] (class symbols), above 10000 nM.

On to `N#Cc1ccc2c(c1)C(c1nc(NCCCN3CCOCC3)nc3c1CCC3)C(=O)N2` (stereo not drawn) [Example 340, 3-[2-(3-Morpholin-4-yl-propylamino)-6,7-dihydro-5H-cyclopentapyrimidin-4-yl]-2-oxo-2,3-dihydro-1H-indole-5-carbonitrile], for which the IC50 in assay [1] (class symbols) and in assay [2] (class symbols) was 300 to 3000 nM in each case.

Turning to `N#Cc1ccc2c(c1)C(c1nc(Nc3cccnc3)nc3nn(C4CCCC4)cc13)C(=O)N2` (stereo not drawn) [Example 169, 3-[2-Cyclopentyl-6-(pyridin-3-ylamino)-2H-pyrazolo [3,4-d]pyrimidin-4-yl]-2-oxo-2,3-dihydro-1H-indole-5-carbonitrile], the values for the half-maximal inhibitory concentration (IC50) in assay [1] (class symbols) and in assay [2] (class symbols) were below 300 nM and above 10000 nM, respectively.

For the molecule `CCOCCNc1nc2c(c(C3C(=O)Nc4ccc(C#N)cc43)n1)CCC2` (stereo not drawn) [Example 344, 3-[2-(2-Ethoxy-ethylamino)-6,7-dihydro-5H-cyclopentapyrimidin-4-yl]-2-oxo-2,3-dihydro-1H-indole-5-carbonitrile], the “GSK3β % @10 μM” value in assay [1] (@10 μM) worked out at 69% @10 μM. The IC50 in assay [2] (class symbols) was 300 to 3000 nM.

Turning to `N#Cc1ccc2c(c1)C(c1nc(N3CCOCC3)nc3nn(C4CCCC4)cc13)C(=O)N2` (stereo not drawn) [Example 118, 3-(2-cyclopentyl-6-morpholin-4-yl-2H-pyrazolo[3,4-d]pyrimidin-4-yl)-2-oxo-2,3-dihydro-1H-indole-5-carbonitrile], the IC50 in assay [1] (class symbols) was below 300 nM; in assay [2] (class symbols), 300 to 3000 nM.

Consider `O=C1Nc2ccc(Br)cc2C1c1nc(NCc2cccnc2)nc2c1CCC2` (stereo not drawn) [Example 337, 5-Bromo-3-{2-[(pyridin-3-ylmethyl)-amino]-6,7-dihydro-5H-cyclopentapyrimidin-4-yl}-1,3-dihydro-indol-2-one], for which the IC50 in assay [1] (class symbols) and in assay [2] (class symbols) was 300 to 3000 nM each time.

As to `O=C1Nc2ccc(F)cc2C1c1nc(NCCN2CCOCC2)nc2c1CCC2` (stereo not drawn) [Example 318, 5-Fluoro-3-[2-(2-morpholin-4-ylethylamino)-6,7-dihydro-5H-cyclopentapyrimidin-4-yl]-1,3-dihydro-indol-2-one], the IC50 in assay [1] (class symbols) and in assay [2] (class symbols) was above 10000 nM throughout.

On to `COc1ccc2c(c1)C(c1ncnc3nn(C4CCCCC4)cc13)C(=O)N2` (stereo not drawn) [Example 52, 3-(2-Cyclohexyl-2H-pyrazolo[3,4-d]pyrimidin-4-yl)-5-methoxy-1,3-dihydro-indol-2-one], for which the IC50 in assay [1] (class symbols) and in assay [2] (class symbols) was 300 to 3000 nM each time.

In the case of `CN(C)CCNc1nc(C2C(=O)Nc3ccc(Br)cc32)c2cn(C3CCCC3)nc2n1` (stereo not drawn) [Example 370, 5-Bromo-3-[2-cyclopentyl-6-(2-dimethylamino-ethylamino)-2H-pyrazolo [3,4-d]pyrimidin-4-yl]-1,3-dihydro-indol-2-one], the IC50 in assay [1] (class symbols) is below 300 nM; in assay [2] (numeric bounds), above 3000 nM.

Take `Cn1cc2c(C3C(=O)Nc4ccc(Br)cc43)nc(NCc3ccncc3)nc2n1` (stereo not drawn) [Example 302, 5-Bromo-3-{2-methyl-6-[(pyridin-4-ylmethyl)-amino]-2H-pyrazolo[3,4-d]pyrimidin-4-yl}-1,3-dihydro-indol-2-one]: the IC50 in assay [1] (class symbols) and in assay [2] (class symbols) was below 300 nM in each case.

On to `O=C1Nc2ccc(F)cc2C1c1nc(NCc2cccnc2)nc2c1CCC2` (stereo not drawn) [Example 321, 5-Fluoro-3-{2-[(pyridin-3-ylmethyl)-amino]-6,7-dihydro-5H-cyclopentapyrimidin-4-yl}-1,3-dihydro-indol-2-one], for which the IC50 in assay [1] (numeric bounds) and in assay [2] (numeric bounds) was above 3000 nM in each case.

As to `CN1CCN(c2nc3c(c(C4C(=O)Nc5ccc(C#N)cc54)n2)CCC3)CC1` (stereo not drawn) [Example 353, 3-[2-(4-Methyl-piperazin-1-yl)-6,7-dihydro-5H-cyclopentapyrimidin-4-yl]-2-oxo-2,3-dihydro-1H-indole-5-carbonitrile], the IC50 was 300 to 3000 nM in assay [1] (class symbols) and above 10000 nM in assay [2] (class symbols).

As for `CNc1nc(C2C(=O)Nc3ccc(C#N)cc32)c2cn(C3CCCC3)nc2n1` (stereo not drawn) [Example 115, 3-(2-cyclopentyl-6-methylamino-2H-pyrazolo[3,4-d]pyrimidin-4-yl)-2-oxo-2,3-dihydro-1H-indole-5-carbonitrile], the IC50 in assay [1] (class symbols) and in assay [2] (class symbols) was below 300 nM throughout.

On to “5-Chloro-3-[2-cyclopentyl-6-(2-diethylamino-ethoxy)-2H-pyrazolo [3,4-d]pyrimidin-4-yl]-1,3-dihydro-indol-2-one [Example 141]”, for which the IC50 is below 300 nM in assay [1] (class symbols) and above 10000 nM in assay [2] (class symbols).

With `CCOCCn1cc2c(C3C(=O)Nc4ccc(Cl)cc43)nc(NCCCNC)nc2n1` (stereo not drawn) [Example 215, 5-Chloro-3-[2-(2-ethoxy-ethyl)-6-(3-methylamino-propylamino)-2H-pyrazolo [3,4-d]pyrimidin-4-yl]-1,3-dihydro-indol-2-one], the half-maximal inhibitory concentration (IC50) in assay [1] (class symbols) and in assay [2] (class symbols) was 300 to 3000 nM in each case.

With `COCCNc1nc(C2C(=O)Nc3ccc(C#N)cc32)c2cn(C3CCCC3)nc2n1` (stereo not drawn) [Example 174, 3-[2-Cyclopentyl-6-(2-methoxy-ethylamino)-2H-pyrazolo [3,4-d]pyrimidin-4-yl]-2-oxo-2,3-dihydro-1H-indole-5-carbonitrile], the half-maximal inhibitory concentration (IC50) in assay [1] (class symbols) and in assay [2] (class symbols) was below 300 nM in each case.

Consider `N#Cc1ccc2c(c1)C(c1nc(Nc3cccnc3)nc3c1CCC3)C(=O)N2` (stereo not drawn) [Example 350, 2-Oxo-3-[2-(pyridin-3-ylamino)-6,7-dihydro-5H-cyclopentapyrimidin-4-yl]-2,3-dihydro-1H-indole-5-carbonitrile], for which the IC50 in assay [1] (class symbols) is 300 to 3000 nM; in assay [2] (numeric bounds) it was above 3000 nM.

The IC50 is the concentration that inhibits the measured activity by half.
